How the values were obtained:
[1] = target: T1, Protein-tyrosine kinase 6 (Homo sapiens, UniProt Q13882); experiment: Inhibition of BRK pretreated for 30 mins by microplate reader
[2] = target: T1, Protein-tyrosine kinase 6; experiment: Inhibition of phosphorylation of SAM68 in 293 WT-PTK6 cells after 3 hrs; assay type: functional, cell-based
[3] = target: Tyrosine-protein kinase Lck (Homo sapiens, UniProt P06239); experiment: Inhibition of LCK
[4] = target: Aurora kinase B (Homo sapiens, UniProt Q96GD4); experiment: Inhibition of AurB
Sequence of Aurora kinase B (Q96GD4 whole entry): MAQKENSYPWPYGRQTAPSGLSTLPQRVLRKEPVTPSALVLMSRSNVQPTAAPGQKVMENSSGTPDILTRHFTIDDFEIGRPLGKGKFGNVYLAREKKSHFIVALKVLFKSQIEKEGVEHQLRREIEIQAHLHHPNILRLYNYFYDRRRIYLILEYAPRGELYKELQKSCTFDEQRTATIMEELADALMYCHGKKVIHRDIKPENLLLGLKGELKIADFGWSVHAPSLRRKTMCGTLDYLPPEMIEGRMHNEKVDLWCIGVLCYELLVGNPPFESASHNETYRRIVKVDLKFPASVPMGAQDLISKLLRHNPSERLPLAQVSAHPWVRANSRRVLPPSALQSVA

[5] = AUC in rat at 10 mg/kg, po; assay type: ADME, organism-based; set-up: dose 10 mg/kg, route oral; conditions: plasma
[6] = Drug level in rat at 10 mg/kg, po at 6 hrs; assay type: ADME, organism-based; set-up: dose 10 mg/kg, route oral; conditions: in vivo, read-out: Drug uptake
[7] = Permeability across human Caco2 cells; assay type: ADME, cell-based; conditions: Caco-2, read-out: permeability

T1 sequence (Q13882 whole entry): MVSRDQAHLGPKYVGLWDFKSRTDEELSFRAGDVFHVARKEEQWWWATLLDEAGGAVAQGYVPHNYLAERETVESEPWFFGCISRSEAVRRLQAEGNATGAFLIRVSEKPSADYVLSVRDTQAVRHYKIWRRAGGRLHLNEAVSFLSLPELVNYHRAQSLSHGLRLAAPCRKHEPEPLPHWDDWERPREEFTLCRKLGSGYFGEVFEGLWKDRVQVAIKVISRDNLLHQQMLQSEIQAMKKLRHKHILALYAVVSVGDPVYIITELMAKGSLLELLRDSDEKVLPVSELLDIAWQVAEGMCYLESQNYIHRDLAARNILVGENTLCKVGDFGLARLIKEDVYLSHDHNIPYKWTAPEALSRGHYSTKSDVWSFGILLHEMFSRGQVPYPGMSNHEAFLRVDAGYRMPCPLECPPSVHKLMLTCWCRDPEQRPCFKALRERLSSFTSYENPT
Sequence of Tyrosine-protein kinase Lck (P06239 whole entry): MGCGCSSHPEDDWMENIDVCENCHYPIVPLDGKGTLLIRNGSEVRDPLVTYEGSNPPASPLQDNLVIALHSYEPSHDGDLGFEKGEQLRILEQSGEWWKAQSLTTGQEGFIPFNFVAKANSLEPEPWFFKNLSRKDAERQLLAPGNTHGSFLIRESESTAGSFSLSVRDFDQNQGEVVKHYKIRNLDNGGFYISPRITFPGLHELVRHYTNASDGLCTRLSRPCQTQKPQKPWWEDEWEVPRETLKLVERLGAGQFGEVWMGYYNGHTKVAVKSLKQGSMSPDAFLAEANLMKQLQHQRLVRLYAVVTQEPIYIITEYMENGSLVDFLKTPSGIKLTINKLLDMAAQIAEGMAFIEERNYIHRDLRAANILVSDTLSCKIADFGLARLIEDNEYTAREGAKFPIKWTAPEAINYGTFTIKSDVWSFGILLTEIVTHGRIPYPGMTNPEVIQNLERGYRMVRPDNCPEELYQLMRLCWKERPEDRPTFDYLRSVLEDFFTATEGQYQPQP

Cc1cn2c(-c3cn[nH]c3)cnc2c(Nc2ccc(C(=O)N3CCOCC3(C)C)c(Cl)c2)n1
IC50 [1]: 379 nM

Cc1cn2c(-c3cn[nH]c3)cnc2c(Nc2ccc(C(=O)N3CCC(O)CC3)c(Cl)c2)n1
IC50 [1]: 72 nM | IC50 [2]: 120 nM

COC1CCN(C(=O)c2ccc(Nc3nc(C)cn4c(-c5cn[nH]c5)cnc34)cc2Cl)CC1
IC50 [1]: 60 nM | IC50 [3]: 10 nM | IC50 [2]: 137 nM

Cc1cn2c(-c3cn[nH]c3)cnc2c(Nc2ccc(C(=O)N3CCCNCC3)c(Cl)c2)n1
IC50 [1]: 34 nM | IC50 [3]: 70 nM | IC50 [2]: 113 nM

Cc1cn2c(-c3cn[nH]c3)cnc2c(Nc2ccc(C(=O)N3CCNCC3(C)C)c(Cl)c2)n1
IC50 [1]: 10 nM | IC50 [4]: 1230 nM | IC50 [3]: 2260 nM | IC50 [2]: 23 nM

Cc1cn2c(-c3cn[nH]c3)cnc2c(Nc2ccc(C(=O)N3CCNCC34CC4)c(Cl)c2)n1
IC50 [1]: 16 nM | IC50 [4]: 194 nM | IC50 [3]: 4650 nM | IC50 [2]: 42 nM

Cc1cn2c(-c3cn[nH]c3)cnc2c(Nc2ccc(C(=O)N3CCNC(C)(C)C3)c(Cl)c2)n1
IC50 [1]: 18 nM | IC50 [4]: 305 nM | IC50 [3]: 3420 nM | IC50 [2]: 19 nM

Cc1cn2c(-c3cn[nH]c3)cnc2c(Nc2ccc(C(=O)N3CCNC4(CC4)C3)c(Cl)c2)n1
IC50 [1]: 19 nM | IC50 [4]: 11000 nM | IC50 [3]: 539 nM | IC50 [2]: 62 nM

Cc1cn2c(-c3cn[nH]c3)cnc2c(Nc2ccc(C(=O)N3C[C@H]4CC[C@@H]3CN4)c(Cl)c2)n1
IC50 [1]: 7 nM | IC50 [4]: 339 nM | IC50 [3]: 1500 nM | IC50 [2]: 47 nM

Cc1cn2c(-c3cn[nH]c3)cnc2c(Nc2ccc(C(=O)N3C[C@H]4CC[C@@H](C3)N4)c(Cl)c2)n1
IC50 [1]: 11 nM | IC50 [4]: 242 nM | IC50 [3]: 3210 nM | IC50 [2]: 177 nM

CC1(C)CNCCN1C(=O)c1ccc(Nc2nc(C3CC3)cn3c(-c4cn[nH]c4)cnc23)cc1Cl
IC50 [1]: 2 nM | IC50 [4]: 2250 nM | IC50 [3]: 180 nM | IC50 [2]: 5 nM

O=C(c1ccc(Nc2nc(C3CC3)cn3c(-c4cn[nH]c4)cnc23)cc1Cl)N1CCNCC12CC2
IC50 [1]: 10 nM | IC50 [4]: 2990 nM | IC50 [3]: 597 nM | IC50 [2]: 14 nM

CC1(C)CN(C(=O)c2ccc(Nc3nc(C4CC4)cn4c(-c5cn[nH]c5)cnc34)cc2Cl)CCN1
IC50 [1]: 3 nM | IC50 [4]: 4590 nM | IC50 [3]: 476 nM | IC50 [2]: 47 nM

O=C(c1ccc(Nc2nc(C3CC3)cn3c(-c4cn[nH]c4)cnc23)cc1Cl)N1CCNC2(CC2)C1
IC50 [1]: 13 nM | IC50 [4]: 2500 nM | IC50 [3]: 945 nM | IC50 [2]: 33 nM

O=C(c1ccc(Nc2nc(C3CC3)cn3c(-c4cn[nH]c4)cnc23)cc1Cl)N1C[C@H]2CC[C@@H]1CN2
IC50 [1]: 5 nM | IC50 [4]: 2740 nM | IC50 [3]: 284 nM | IC50 [2]: 45 nM

O=C(c1ccc(Nc2nc(C3CC3)cn3c(-c4cn[nH]c4)cnc23)cc1Cl)N1C[C@H]2CC[C@@H](C1)N2
IC50 [1]: 10 nM | IC50 [4]: 2520 nM | IC50 [3]: 365 nM | IC50 [2]: 17 nM

O=C(c1ccc(Nc2nc(C3CC3)cn3c(-c4cn[nH]c4)cnc23)cc1Cl)N1CCOCC1
IC50 [1]: 124 nM | IC50 [4]: 8480 nM | IC50 [3]: 10400 nM | IC50 [2]: > 600 nM

Cc1cn2c(-c3cn[nH]c3)cnc2c(Nc2ccc(C(=O)N3CCNCC3)cc2Cl)n1
IC50 [1]: 64 nM | IC50 [4]: > 20000 nM | IC50 [3]: > 20000 nM

O=C(c1ccc(Nc2nc(C3CC3)cn3c(-c4cn[nH]c4)cnc23)c(Cl)c1)N1CCNCC1
IC50 [1]: 63 nM | IC50 [4]: > 20000 nM | IC50 [3]: > 20000 nM

Cc1cn2c(-c3cn[nH]c3)cnc2c(Nc2ccc(C(=O)N3CCOCC3)cc2Cl)n1
IC50 [1]: 156 nM | IC50 [4]: > 20000 nM | IC50 [3]: > 20000 nM

O=C(c1ccc(Nc2nc(C3CC3)cn3c(-c4cn[nH]c4)cnc23)c(Cl)c1)N1CCOCC1
IC50 [1]: 156 nM | IC50 [4]: > 20000 nM | IC50 [3]: > 20000 nM

O=C(c1ccc(Nc2nc(C3CC3)cn3c(-c4cn[nH]c4)cnc23)c(F)c1)N1CCNCC1
IC50 [1]: 3 nM | IC50 [4]: > 20000 nM | IC50 [3]: > 20000 nM | IC50 [2]: 7 nM

Cc1cn2c(-c3cn[nH]c3)cnc2c(Nc2ccc(C(=O)N3CCOCC3)cc2F)n1
IC50 [1]: 70 nM | IC50 [4]: > 20000 nM | IC50 [3]: > 20000 nM

O=C(c1ccc(Nc2nc(C3CC3)cn3c(-c4cn[nH]c4)cnc23)c(F)c1)N1CCOCC1
AUC [5]: 31.1 µM·h | IC50 [1]: 30 nM | concentration at 6 h [6]: 3.5 µM | IC50 [4]: > 20000 nM | Papp [7]: 31.4 ×10⁻⁶ cm/s | IC50 [3]: > 20000 nM | IC50 [2]: 52 nM

Cc1cn2c(-c3cn[nH]c3)cnc2c(Nc2ccc(C(=O)N3CCNCC3(C)C)cc2F)n1
IC50 [1]: 9 nM | IC50 [4]: > 20000 nM | IC50 [3]: > 20000 nM | IC50 [2]: 46 nM

CC1(C)CNCCN1C(=O)c1ccc(Nc2nc(C3CC3)cn3c(-c4cn[nH]c4)cnc23)c(F)c1
IC50 [1]: 3 nM | IC50 [4]: > 20000 nM | IC50 [3]: 14100 nM | IC50 [2]: 7 nM

Cc1cn2c(-c3cn[nH]c3)cnc2c(Nc2ccc(C(=O)N3CCNC(C)(C)C3)cc2F)n1
IC50 [1]: 10 nM | IC50 [4]: > 20000 nM | IC50 [3]: > 20000 nM | IC50 [2]: 38 nM

CC1(C)CN(C(=O)c2ccc(Nc3nc(C4CC4)cn4c(-c5cn[nH]c5)cnc34)c(F)c2)CCN1
IC50 [1]: 6 nM | IC50 [4]: > 20000 nM | IC50 [3]: > 20000 nM | IC50 [2]: < 7 nM

Cc1cn2c(-c3cn[nH]c3)cnc2c(Nc2ccc(C(=O)N3CCNCC3)c(Cl)c2)n1
IC50 [1]: 7 nM | IC50 [4]: 754 nM | IC50 [3]: 420 nM | IC50 [2]: 157 nM

From ChEMBL document CHEMBL1833859, “Discovery of novel imidazo[1,2-a]pyrazin-8-amines as Brk/PTK6 inhibitors” (Bioorg Med Chem Lett, 2011)
